# According to patent US12421211B2, “Heterocyclic compounds” (Hoffmann-La Roche Inc., priority 2021, dated 2025):
# Structures can show the parent of a compound that is named as a salt.
# System: Acinetobacter baumannii ATCC17961
# Experiment: Antimicrobial susceptibility testing: 90% growth inhibitory concentration (IC90) determination
# Assay type: cell-based
# Details: Acinetobacter baumannii, ATCC17961, 16 h, 90% growth inhibitory concentration, Acinetobacter baumannii ATCC17961, Iso-Sensitest broth, OD 600 nm over 16 h; read-out: ATCC 17961 IC90
# Summary of the method: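 Growth inhibition derived in log phase from OD600 kinetics (every 20 minutes, 16h, 35±2° C) of ATCC17961 in Iso-Sensitest medium, inoculum ~5×10^5 CFU/ml. Compounds tested as twofold series, 10 points (e.g. 50 to 0.097 μM final); IC90 and IC50 reported.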
row,Compound,IC90 [µM]
1,"COCCn1ncc(-c2ccc(-c3cnc(C(=O)Nc4ccc(C(=O)N5CCN(C(=O)C[C@@H]6CC[N+](C)(C)C6)CC5)c(Cl)c4)n3C)c(F)c2F)c1C [Example A5, N-[3-chloro-4-[4-[2-[(3S)-1,1-dimethylpyrrolidin-1-ium-3-yl]acetyl]piperazine-1-carbonyl]phenyl]-5-[2,3-difluoro-4-[1-(2-methoxyethyl)-5-methyl-pyrazol-4-yl]phenyl]-1-methyl-imidazole-2-carboxamide; formate]",0.055
2,"Cc1n[nH]cc1-c1ccc(-c2cnc(C(=O)Nc3ccc(C(=O)N4CCN(C(=O)C[N+](C)(C)C)CC4)c(Cl)c3)n2C)c(F)c1F [Example D35, [2-[4-[2-chloro-4-[[5-[2,3-difluoro-4-(3-methyl-1H-pyrazol-4-yl)phenyl]-1-methyl-imidazole-2-carbonyl]amino]benzoyl]piperazin-1-yl]-2-oxo-ethyl]-trimethyl-ammonium; formate]",0.17
3,"COCCn1ncc(-c2ccc(-c3cnc(C(=O)Nc4ccc(C(=O)N5CCN(C(=O)CN6CCCC6)CC5)c(Cl)c4)n3C)c(F)c2F)c1C [Example D28, N-[3-chloro-4-[4-(2-pyrrolidin-1-ylacetyl)piperazine-1-carbonyl]phenyl]-5-[2,3-difluoro-4-[1-(2-methoxyethyl)-5-methyl-pyrazol-4-yl]phenyl]-1-methyl-imidazole-2-carboxamide; 2,2,2-trifluoroacetic acid]",0.03
4,"COCCn1cc(-c2ccc(-c3cnc(C(=O)Nc4ccc(C(=O)N5CCN(C(=O)[C@@H]6[C@@H](O)CC[N+]6(C)C)CC5)c(Cl)c4)n3C)c(F)c2F)c(C)n1 [Example D1, N-[3-chloro-4-[4-[(2S,3S)-3-hydroxy-1,1-dimethyl-pyrrolidin-1-ium-2-carbonyl]piperazine-1-carbonyl]phenyl]-5-[2,3-difluoro-4-[1l-(2-methoxyethyl)-3-methyl-pyrazol-4-yl]phenyl]-1-methyl-imidazole-2-carboxamide; formate]",0.28
5,"COCCn1ncc(-c2ccc(-c3cnc(C(=O)Nc4ccc(C(=O)N5CCN(C(=O)C6(OC)CC[N+](C)(C)CC6)CC5)c(Cl)c4)n3C)c(F)c2F)c1C [Example A13, N-[3-chloro-4-[4-(4-methoxy-1,1-dimethyl-piperidin-1-ium-4-carbonyl)piperazine-1-carbonyl]phenyl]-5-[2,3-difluoro-4-[1-(2-methoxyethyl)-5-methyl-pyrazol-4-yl]phenyl]-1-methyl-imidazole-2-carboxamide; formate]",0.11
6,"COCCn1nc(C)c(-c2ccc(-c3cnc(C(=O)Nc4ccc(C(=O)N5CCN(C(=O)C6CC[N+](C)(C)CC6)CC5)c(Cl)c4)n3C)cc2)c1C [Example A3, N-[3-chloro-4-[4-(1,1-dimethylpiperidin-1-ium-4-carbonyl)piperazine-1-carbonyl]phenyl]-5-[4-[1-(2-methoxyethyl)-3,5-dimethyl-pyrazol-4-yl]phenyl]-1-methyl-imidazole-2-carboxamide; formate]",0.23
7,"Cc1n[nH]cc1-c1ccc(-c2cnc(C(=O)Nc3ccc(C(=O)N4CCN(C(=O)CN(C)C)CC4)c(Cl)c3)n2C)c(F)c1F [Example D34, N-[3-chloro-4-[4-[2-(dimethylamino)acetyl]piperazine-1-carbonyl]phenyl]-5-[2,3-difluoro-4-(3-methyl-1H-pyrazol-4-yl)phenyl]-1-methyl-imidazole-2-carboxamide; formic acid]",0.11
8,"Cc1n[nH]cc1-c1ccc(-c2cnc(C(=O)Nc3ccc(C(=O)N4CCN(C(=O)CCC[N+](CCCN)(CCCN)CC(=O)O)CC4)c(Cl)c3)n2C)c(F)c1F [Example D41, bis(3-aminopropyl)-(carboxymethyl)-[4-[4-[2-chloro-4-[[5-[2,3-difluoro-4-(3-methyl-1H-pyrazol-4-yl)phenyl]-1-methyl-imidazole-2-carbonyl]amino]benzoyl]piperazin-1-yl]-4-oxo-butyl]ammonium; formic acid; formate]",0.061

# Continued, values first:
row,IC90 [µM],Compound
1,0.27,"COc1cccc(Cn2cc(-c3ccc(-c4cnc(C(=O)Nc5ccc(C(=O)N6CCN(C(=O)C7CC[N+](C)(C)CC7)CC6)c(Cl)c5)n4C)c(F)c3F)c(C)n2)n1 [Example F55, N-[3-chloro-4-[4-(1,1-dimethylpiperidin-1-ium-4-carbonyl)piperazine-1-carbonyl]phenyl]-5-[2,3-difluoro-4-[1-[(6-methoxy-2-pyridyl)methyl]-3-methyl-pyrazol-4-yl]phenyl]-1-methyl-imidazole-2-carboxamide; formate]"
2,0.82,"Cn1c(-c2ccc(-c3cn[nH]c3C3CCOCC3)c(F)c2F)cnc1C(=O)Nc1ccc(C(=O)N2CCN(C(=O)C3CC[N+](C)(C)CC3)CC2)c(Cl)c1 [Example I6, N-[3-chloro-4-[4-(1,1-dimethylpiperidin-1-ium-4-carbonyl)piperazine-1-carbonyl]phenyl]-5-[2,3-difluoro-4-(5-tetrahydropyran-4-yl-1H-pyrazol-4-yl)phenyl]-1-methyl-imidazole-2-carboxamide; formate]"
3,0.14,"Cn1c(-c2ccc(-c3cn[nH]c3)cc2)cnc1C(=O)Nc1ccc(C(=O)N2CCN(C(=O)C3CCNCC3)CC2)c(Cl)c1 [Example E23, N-[3-chloro-4-[4-(piperidine-4-carbonyl)piperazine-1-carbonyl]phenyl]-1-methyl-5-[4-(1H-pyrazol-4-yl)phenyl] imidazole-2-carboxamide]"
4,0.15,"Cc1nn(Cc2ccccn2)cc1-c1ccc(-c2cnc(C(=O)Nc3ccc(C(=O)N4CCN(C(=O)C5CC[N+](C)(C)CC5)CC4)c(Cl)c3)n2C)c(F)c1F [Example F41, N-[3-chloro-4-[4-(1,1-dimethylpiperidin-1-ium-4-carbonyl)piperazine-1-carbonyl]phenyl]-5-[2,3-difluoro-4-[3-methyl-1-(2-pyridylmethyl)pyrazol-4-yl]phenyl]-1-methyl-imidazole-2-carboxamide; formate]"
5,1.1,"Cc1nn(CCn2ccccc2=O)cc1-c1ccc(-c2cnc(C(=O)Nc3ccc(C(=O)N4CCN(C(=O)C5CC[N+](C)(C)CC5)CC4)c(Cl)c3)n2C)c(F)c1F [Example F46, N-[3-chloro-4-[4-(1,1-dimethylpiperidin-1-ium-4-carbonyl)piperazine-1-carbonyl]phenyl]-5-[2,3-difluoro-4-[3-methyl-1-[2-(2-oxo-1-pyridyl)ethyl]pyrazol-4-yl]phenyl]-1-methyl-imidazole-2-carboxamide; formate]"
6,0.24,"Cc1nn(CCCO)cc1-c1ccc(-c2cnc(C(=O)Nc3ccc(C(=O)N4CCN(C(=O)[C@@H]5C[C@@H](O)C[N+]5(C)C)CC4)c(Cl)c3)n2C)c(F)c1F [Example F16, N-[3-chloro-4-[4-[(2S,4R)-4-hydroxy-1,1-dimethyl-pyrrolidin-1-ium-2-carbonyl]piperazine-1-carbonyl]phenyl]-5-[2,3-difluoro-4-[1-(3-hydroxypropyl)-3-methyl-pyrazol-4-yl]phenyl]-1-methyl-imidazole-2-carboxamide; formate]"
7,0.88,"COCCn1ncc(-c2ccc(-c3cnc(C(=O)Nc4ccc(C(=O)N5CCN(C(=O)C6CC[N+](C)(C)CC6)CC5)c(Cl)c4)n3C)c(F)n2)c1C [Example F57, N-[3-chloro-4-[4-(1,1-dimethylpiperidin-1-ium-4-carbonyl)piperazine-1-carbonyl]phenyl]-5-[2-fluoro-6-[1-(2-methoxyethyl)-5-methyl-pyrazol-4-yl]-3-pyridyl]-1-methyl-imidazole-2-carboxamide; formate]"
8,0.33,"COCCn1ncc(-c2ccc(-c3cnc(C(=O)Nc4ccc(C(=O)N5CCN(C(=O)C6CC[N+](C)(C)CC6)CC5)c(Cl)c4)n3C)c(C)c2)c1C [Example F19, N-[3-chloro-4-[4-(1,1-dimethylpiperidin-1-ium-4-carbonyl)piperazine-1-carbonyl]phenyl]-5-[4-[1-(2-methoxyethyl)-5-methyl-pyrazol-4-yl]-2-methyl-phenyl]-1-methyl-imidazole-2-carboxamide; formate]"
9,0.295,"COCCn1ncc(-c2ccc(-c3cnc(C(=O)Nc4ccc(C(=O)N5CCN(C(=O)CCCC(=O)N6CC[N+](CCCN)(CC(=O)O)CC6)CC5)c(Cl)c4)n3C)c(F)c2F)c1C [Example P5, 2-[1-(3-aminopropyl)-4-[5-[4-[2-chloro-4-[[5-[2,3-difluoro-4-[1-(2-methoxyethyl)-5-methyl-pyrazol-4-yl]phenyl]-1-methyl-imidazole-2-carbonyl]amino]benzoyl]piperazino]-5-keto-pentanoyl]piperazin-1-ium-1-yl]acetic acid; formate]"
10,0.2,"COCCn1ncc(-c2ccc(-c3cnc(C(=O)Nc4ccc(C(=O)N5CCN(C(=O)CCC[N+](C)(CCCN)CC(=O)O)CC5)c(Cl)c4)n3C)c(C)c2F)c1C (stereo not shown) [Example O5, 3-aminopropyl-(carboxymethyl)-[4-[4-[2-chloro-4-[[5-[3-fluoro-4-[1-(2-methoxyethyl)-5-methyl-pyrazol-4-yl]-2-methyl-phenyl]-1-methyl-imidazole-2-carbonyl]amino]benzoyl]piperazino]-4-keto-butyl]-methyl-ammonium. 1:12,2,2-trifluoroacetic acid; 2,2,2-trifluoroacetate]"

# Same assay, conditions: Acinetobacter baumannii, ATCC17961, 16 h, read-out: ATCC 17961 IC90
row,Compound,IC90 [µM]
1,"Cc1n[nH]cc1-c1ccc(-c2cnc(C(=O)Nc3ccc(C(=O)N4CCN(C(=O)C5CCC[N+]5(C)CCO)CC4)c(Cl)c3)n2C)c(F)c1F (stereo not shown) [Example B35, N-[3-chloro-4-[4-[1-(2-hydroxyethyl)-1-methyl-pyrrolidin-1-ium-2-carbonyl]piperazine-1-carbonyl]phenyl]-5-[2,3-difluoro-4-(3-methyl-1H-pyrazol-4-yl)phenyl]-1-methyl-imidazole-2-carboxamide; 2,2,2-trifluoroacetate]",0.13
